Experimental data taken from patent US10669272B2, “Substituted naphthyridinone compounds useful as T cell activators” (BRISTOL-MYERS SQUIBB COMPANY, priority 2018, dated 2020).
Read-outs that look alike come from different tables or passages of the source.

Experiments:
[1] = molecular target: T1, human DGKα (Homo sapiens, UniProt P23743); test: DGKα LIPGLO assay (extruded liposome substrate), in vitro DGK inhibition; assay type: biochemical; settings: read-out: DGKa LIPGLO IC50
T1 construct: TVMV protease cleavage site (C); Hexa-His (C); made in house; host or cells: Sf9 insect cells (baculovirus, Bac-to-Bac)
T1 sequence (P23743 with tags, fused parts or gaps): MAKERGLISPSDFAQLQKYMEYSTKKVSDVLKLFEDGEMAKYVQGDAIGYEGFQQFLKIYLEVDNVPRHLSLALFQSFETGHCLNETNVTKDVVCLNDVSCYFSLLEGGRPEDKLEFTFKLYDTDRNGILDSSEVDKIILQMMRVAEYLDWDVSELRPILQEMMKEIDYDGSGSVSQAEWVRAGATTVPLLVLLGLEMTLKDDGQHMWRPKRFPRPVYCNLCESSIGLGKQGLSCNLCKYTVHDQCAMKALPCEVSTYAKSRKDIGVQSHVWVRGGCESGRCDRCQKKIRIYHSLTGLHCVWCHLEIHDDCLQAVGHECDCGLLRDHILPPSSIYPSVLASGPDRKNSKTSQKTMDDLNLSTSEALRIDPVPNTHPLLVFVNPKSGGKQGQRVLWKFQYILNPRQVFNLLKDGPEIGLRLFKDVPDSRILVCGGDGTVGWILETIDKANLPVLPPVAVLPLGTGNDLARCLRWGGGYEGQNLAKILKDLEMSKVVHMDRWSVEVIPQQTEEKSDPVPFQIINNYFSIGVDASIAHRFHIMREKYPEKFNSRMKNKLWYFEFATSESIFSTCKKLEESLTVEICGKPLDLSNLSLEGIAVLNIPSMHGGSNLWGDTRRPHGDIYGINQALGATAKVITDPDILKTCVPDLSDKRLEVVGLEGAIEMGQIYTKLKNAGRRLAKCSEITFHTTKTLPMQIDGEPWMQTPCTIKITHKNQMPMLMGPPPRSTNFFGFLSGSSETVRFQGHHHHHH

[2] = molecular target: T2, human DGKζ (Homo sapiens, UniProt Q13574); test: DGKζ LIPGLO assay (extruded liposome substrate), in vitro DGK inhibition; assay type: biochemical; settings: read-out: DGKz LIPGLO IC50
T2 construct: TVMV protease cleavage site (C); Hexa-His (C); made in house; host or cells: Sf9 insect cells (baculovirus, Bac-to-Bac)
T2 sequence (Q13574 with tags, fused parts or gaps isoform Q13574-4): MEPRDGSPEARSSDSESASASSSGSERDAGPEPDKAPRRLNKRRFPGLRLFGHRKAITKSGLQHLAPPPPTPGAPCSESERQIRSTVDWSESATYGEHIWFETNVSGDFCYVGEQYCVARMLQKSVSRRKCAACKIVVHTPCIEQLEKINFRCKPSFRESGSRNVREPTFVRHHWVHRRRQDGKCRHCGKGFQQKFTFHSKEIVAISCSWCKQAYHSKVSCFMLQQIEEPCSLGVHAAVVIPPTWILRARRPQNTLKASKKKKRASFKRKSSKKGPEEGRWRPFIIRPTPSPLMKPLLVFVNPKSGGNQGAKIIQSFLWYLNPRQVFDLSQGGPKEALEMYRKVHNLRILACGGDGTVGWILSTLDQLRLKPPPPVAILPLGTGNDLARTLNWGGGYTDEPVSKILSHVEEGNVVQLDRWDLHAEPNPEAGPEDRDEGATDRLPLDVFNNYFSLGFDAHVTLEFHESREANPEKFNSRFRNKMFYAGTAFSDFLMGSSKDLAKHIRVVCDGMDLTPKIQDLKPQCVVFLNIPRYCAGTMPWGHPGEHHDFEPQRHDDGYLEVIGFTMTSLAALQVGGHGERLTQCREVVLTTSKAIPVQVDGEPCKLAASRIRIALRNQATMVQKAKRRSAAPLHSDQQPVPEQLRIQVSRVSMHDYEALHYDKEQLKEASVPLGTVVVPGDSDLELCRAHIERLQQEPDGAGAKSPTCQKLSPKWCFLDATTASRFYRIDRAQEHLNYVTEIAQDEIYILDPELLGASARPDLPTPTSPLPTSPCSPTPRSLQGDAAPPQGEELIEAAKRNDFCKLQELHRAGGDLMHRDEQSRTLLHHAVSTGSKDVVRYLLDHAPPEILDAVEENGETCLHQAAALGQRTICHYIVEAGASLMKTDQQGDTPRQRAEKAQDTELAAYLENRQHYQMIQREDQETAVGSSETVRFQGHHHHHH

[3] = system: Human venous whole blood; test: Human whole blood IFN-γ assay; assay type: cell-based; settings: human whole blood, read-out: INFg Whole Blood Normalized Agonist EC50;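 also: blood from healthy donors exposed to compound for 1 h before stimulation with anti-CD3 and anti-CD28 at 1 µg/mL each, IFN-γ quantified in supernatant by AlphaLISA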
[4] = normalized to 3 μM reference compound with anti-CD3 plus anti-CD28 as 100% activation
[5] = Homo sapiens, 24 h, normalized to 3 μM reference compound with anti-CD3 plus anti-CD28 as 100% activation
[6] = Homo sapiens, 24 h, anti-CD3 plus anti-CD28, 24 hours, 3 μM reference compound = 100% activation
[7] = anti-CD3 plus anti-CD28, 24 hours, 3 μM reference compound = 100% activation

IC50 ([1]; liposome (LIPGLO) assay) [nM] | IC50 ([2]; liposome (LIPGLO) assay) [nM] | IC50 ([1]; DGKα liposome (LIPGLO) assay) [nM] | IC50 ([2]; DGKζ liposome (LIPGLO) assay) [nM] | Structure (SMILES) | EC50 [3, 4] [nM] | EC50 [3, 5] [nM] | EC50 [3, 6] [nM] | EC50 [3, 7] [nM]
330 | 160 |  |  | C[C@@H]1CN(c2cc(=O)n(C)c3ccc(C#N)nc23)[C@@H](C)CN1C(c1ccc(F)cc1)c1cccc(F)c1 (stereo partly drawn) [Example 293, 8-[(2S,5R)-4-[(3-fluorophenyl)(4-fluorophenyl)methyl]-2,5-dimethylpiperazin-1-yl]-5-methyl-6-oxo-5,6-dihydro-1,5-naphthyridine-2-carbonitrile] | 460 |  |  | 
83 | 150 |  |  | CC[C@H]1CN(C(c2cccc(F)c2)c2ccc(OC)cn2)[C@H](CC)CN1c1cc(=O)n(C)c2ccc(C#N)nc12 (stereo partly drawn) [Example 1048] |  | 190 |  | 
320 | 220 |  |  | CC[C@@H]1CN(c2cc(=O)n(C)c3ccc(C#N)nc23)[C@@H](C)CN1C(c1ccc(OC(F)(F)F)cc1)c1ccccn1 (single isomer, unassigned) [Example 340] |  | 80 |  | 
73 | 180 |  |  | CC[C@H]1CN(C(c2ccc(F)cc2)c2ccc(C(F)(F)F)cn2)[C@H](C)CN1c1cc(=O)n(C)c2ccc(C#N)nc12 (single isomer, unassigned) [Example 1131] | 430 |  |  | 
27 | 170 |  |  | CC[C@@H]1CN(c2cc(=O)n(C)c3ccc(C#N)nc23)[C@@H](C)CN1C(c1ccc(Cl)cc1)c1ccccn1 (single isomer, unassigned) [Example 423] | 740 |  |  | 

More lines, now with the values behind:

Structure (SMILES) | IC50 ([1]; liposome (LIPGLO) assay) [nM] | IC50 ([2]; liposome (LIPGLO) assay) [nM] | IC50 ([1]; DGKα liposome (LIPGLO) assay) [nM] | IC50 ([2]; DGKζ liposome (LIPGLO) assay) [nM] | EC50 [3, 4] [nM] | EC50 [3, 5] [nM] | EC50 [3, 6] [nM] | EC50 [3, 7] [nM]
Cc1cccc(C(c2ccc(F)cc2)N2CCN(c3c(C#N)c(=O)n(C)c4ccc(C#N)nc34)C[C@H]2C)n1 (single isomer, unassigned) [Example 905] |  |  | 4600 | 1200 |  |  | 1300 | 
C[C@@H]1CN(c2c(C#N)c(=O)n(C)c3ccc(C#N)nc23)CCN1C(c1ccc(Cl)cc1)c1ccc(Cl)cn1 (stereo partly drawn) [Example 930] |  |  | 640 | 1300 |  |  | 1300 | 
CC(c1nc(C2CC2)cs1)N1C[C@H](C)N(c2cc(=O)n(C)c3ccc(C#N)nc23)C[C@H]1C (single isomer, unassigned) [Example 647] | 220 | 75 |  |  | 5200 |  |  | 
C[C@@H]1CN(c2cc(=O)n(C)c3ccc(C#N)nc23)[C@@H](C)CN1C(c1ccc(F)cc1)C1CCOCC1 (single isomer, unassigned) [Example 387] | 1500 | 3100 |  |  |  | 3600 |  | 
CCC(c1ccc(OCCC2CC2)cc1)N1C[C@H](C)N(c2cc(=O)n(C)c3ccc(C#N)nc23)C[C@H]1C (single isomer, unassigned) [Example 1446] | 260 | 230 |  |  | 230 |  |  | 
Cc1ccc(C(c2ccc(C)c(Cl)c2)N2C[C@H](C)N(c3cc(=O)n(C)c4ccc(C#N)nc34)C[C@H]2C)nc1 (single isomer, unassigned) [Example 380] | 3100 | 1600 |  |  | 630 |  |  | 
CC(c1cccc(OC(F)(F)F)c1F)N1C[C@H](C)N(c2cc(=O)n(C)c3ccc(C#N)nc23)C[C@H]1C (single isomer, unassigned) [Example 1209] | 20000 | 1200 |  |  | 12000 |  |  | 
Cc1ccc(C(c2ncccc2F)N2CCN(c3c(C#N)c(=O)n(C)c4ccc(C#N)nc34)C[C@H]2C)cc1 (single isomer, unassigned) [Example 892] |  |  | 1800 | 1300 |  |  |  | 5000
C[C@@H]1CN(c2c(C#N)c(=O)n(C)c3ccc(C#N)nc23)CCN1C(c1ccc(F)cc1)c1cccc(C(F)(F)F)n1 (single isomer, unassigned) [Example 921] |  |  | 23000 | 3100 |  |  |  | 1500
Cc1ccc(C(c2ccc(F)cc2Cl)N2C[C@H](C)N(c3c(C#N)c(=O)n(C)c4ccc(C#N)nc34)C[C@H]2C)nc1 (stereo partly drawn) [Example 831] |  |  | 42000 | 6500 |  |  | 2500 | 
C[C@@H]1CN(c2cc(=O)n(C)c3ccc(C#N)nc23)[C@@H](C)CN1C(c1ccc(F)cc1)c1nc(C2CC2)cs1 (single isomer, unassigned) [Example 700] | 380 | 95 |  |  | 120 |  |  | 
